# According to ChEMBL document CHEMBL3885881, “DrugMatrix”:
# Species on record: Rattus norvegicus
# Format: toxicity, organism-based, Sprague-Dawley
# Details: in vivo, po, 24 h, route oral GAVAGE, time 1 day, vehicle .5 % CMC; for ABSOLUTE EOSINOPHIL / ABSOLUTE LYMPHOCYTE / ABSOLUTE MONOCYTE / ABSOLUTE SEGMENTED NEUTROPHIL / BASOPHIL / EOSINOPHIL / ERYTHROCYTE COUNT / HEMATOCRIT / HEMOGLOBIN / LEUKOCYTE COUNT / LYMPHOCYTE / MEAN CORPUSCULAR HEMOGLOBIN / MEAN CORPUSCULAR HEMOGLOBIN CONCENTRATION / MEAN CORPUSCULAR VOLUME / MONOCYTE / NEUTROPHIL / NUCLEATED RED BLOOD CELLS / PLATELET COUNT: tissue Blood; for ALANINE AMINOTRANSFERASE / ALBUMIN / ALKALINE PHOSPHATASE / ASPARTATE AMINOTRANSFERASE / BLOOD UREA NITROGEN / CARBON DIOXIDE / CHLORIDE / CHOLESTEROL / CREATININE / GLUCOSE / LACTATE DEHYDROGENASE / LIPASE / PHOSPHORUS / POTASSIUM / SODIUM / TOTAL BILIRUBIN / TOTAL PROTEIN / URIC ACID: tissue Plasma
# [1] = 0 mg/kg, vehicle control, dose level Control
# Description: DrugMatrix - Regimen: Single
compound,measurement,setting,value
COc1ccccc1[N+](=O)[O-] [2-NITROANISOLE],ABSOLUTE EOSINOPHIL,[1],150 CELLS/uL
same,ABSOLUTE LYMPHOCYTE,[1],13279.83 CELLS/uL
same,ABSOLUTE MONOCYTE,[1],654.5 CELLS/uL
same,ABSOLUTE SEGMENTED NEUTROPHIL,[1],1565.67 CELLS/uL
same,BASOPHIL,[1],0%
same,EOSINOPHIL,[1],1%
same,ERYTHROCYTE COUNT,[1],5.36 x10E6/uL
same,HEMATOCRIT,[1],33.37%
same,HEMOGLOBIN,[1],12.52 G/DL
same,LEUKOCYTE COUNT,[1],15.65 x10E3/uL
same,LYMPHOCYTE,[1],84.83%
same,MEAN CORPUSCULAR HEMOGLOBIN,[1],23.4 pg
same,MEAN CORPUSCULAR HEMOGLOBIN CONCENTRATION,[1],37.52 G/DL
same,MEAN CORPUSCULAR VOLUME,[1],62.32 fL
same,MONOCYTE,[1],4.17%
same,NEUTROPHIL,[1],10%
same,NUCLEATED RED BLOOD CELLS,[1],0 /100WBC
same,PLATELET COUNT,[1],1020 x10E3/uL
same,ALANINE AMINOTRANSFERASE,[1],49 u/L
same,ALBUMIN,[1],4.47 G/DL
same,ALKALINE PHOSPHATASE,[1],361.17 u/L
same,ASPARTATE AMINOTRANSFERASE,[1],78.67 u/L
same,BLOOD UREA NITROGEN,[1],13.17 mg/dL
same,CARBON DIOXIDE,[1],29.67 mmol/L
same,CHLORIDE,[1],100.83 MEQ/L
same,CHOLESTEROL,[1],82.17 mg/dL
same,CREATININE,[1],0.15 mg/dL
same,GLUCOSE,[1],150.83 mg/dL
same,LACTATE DEHYDROGENASE,[1],239.17 u/L
same,LIPASE,[1],7.83 u/L
same,PHOSPHORUS,[1],13.82 mg/dL
same,POTASSIUM,[1],6.62 MEQ/L
same,SODIUM,[1],144.25 MEQ/L
same,TOTAL BILIRUBIN,[1],0.15 mg/dL
same,TOTAL PROTEIN,[1],6.2 G/DL
same,URIC ACID,[1],1.57 mg/dL
same,ABSOLUTE EOSINOPHIL,"740 mg/kg, dose level High",270.67 CELLS/uL
same,ABSOLUTE LYMPHOCYTE,"740 mg/kg, dose level High",12900.33 CELLS/uL
same,ABSOLUTE MONOCYTE,"740 mg/kg, dose level High",775.33 CELLS/uL
same,ABSOLUTE SEGMENTED NEUTROPHIL,"740 mg/kg, dose level High",1353.67 CELLS/uL
same,BASOPHIL,"740 mg/kg, dose level High",0%
same,EOSINOPHIL,"740 mg/kg, dose level High",2%
same,ERYTHROCYTE COUNT,"740 mg/kg, dose level High",5.82 x10E6/uL
same,HEMATOCRIT,"740 mg/kg, dose level High",35.73%
same,HEMOGLOBIN,"740 mg/kg, dose level High",13 G/DL
same,LEUKOCYTE COUNT,"740 mg/kg, dose level High",15.3 x10E3/uL
same,LYMPHOCYTE,"740 mg/kg, dose level High",84.33%
same,MEAN CORPUSCULAR HEMOGLOBIN,"740 mg/kg, dose level High",22.4 pg
same,MEAN CORPUSCULAR HEMOGLOBIN CONCENTRATION,"740 mg/kg, dose level High",36.43 G/DL
same,MEAN CORPUSCULAR VOLUME,"740 mg/kg, dose level High",61.43 fL
same,MONOCYTE,"740 mg/kg, dose level High",5%
same,NEUTROPHIL,"740 mg/kg, dose level High",8.67%
same,NUCLEATED RED BLOOD CELLS,"740 mg/kg, dose level High",0 /100WBC
same,PLATELET COUNT,"740 mg/kg, dose level High",1078.67 x10E3/uL
same,ALANINE AMINOTRANSFERASE,"740 mg/kg, dose level High",63 u/L
same,ALBUMIN,"740 mg/kg, dose level High",4.53 G/DL
same,ALKALINE PHOSPHATASE,"740 mg/kg, dose level High",432.67 u/L
same,ASPARTATE AMINOTRANSFERASE,"740 mg/kg, dose level High",85.67 u/L
same,BLOOD UREA NITROGEN,"740 mg/kg, dose level High",13 mg/dL
same,CARBON DIOXIDE,"740 mg/kg, dose level High",29 mmol/L
same,CHLORIDE,"740 mg/kg, dose level High",102.33 MEQ/L
same,CHOLESTEROL,"740 mg/kg, dose level High",77.67 mg/dL
same,CREATININE,"740 mg/kg, dose level High",0.2 mg/dL
same,GLUCOSE,"740 mg/kg, dose level High",124.33 mg/dL
same,LACTATE DEHYDROGENASE,"740 mg/kg, dose level High",283.67 u/L
same,LIPASE,"740 mg/kg, dose level High",9 u/L
same,PHOSPHORUS,"740 mg/kg, dose level High",12.9 mg/dL
same,POTASSIUM,"740 mg/kg, dose level High",7.13 MEQ/L
same,SODIUM,"740 mg/kg, dose level High",144.43 MEQ/L
same,TOTAL BILIRUBIN,"740 mg/kg, dose level High",0.27 mg/dL
same,TOTAL PROTEIN,"740 mg/kg, dose level High",6.03 G/DL
same,URIC ACID,"740 mg/kg, dose level High",1.33 mg/dL
